{"source": "paper PMC9127750", "about": "“Structure-based design of CDC42 effector interaction inhibitors for the treatment of cancer” (Cell reports, 2022)", "tested_on": "WM3248 melanoma cells, 486 antibodies", "test": "Reverse phase protein arrays (RPPA)", "assay_type": "cell-based, Human", "description": "Pellets were snap frozen in liquid nitrogen and shipped to MD Anderson Cancer Center core RPPA facility for RPPA analysis (Table S5). Three biological replicates for each sample were generated.\nNomenclatures on the RPPA heatmaps: name_of_antibody.species_of_antibody.status_of_antibody. V - antibody validated; C - validation of antibody in progress; Q - antibody nonspecific; E – under evaluation; antibodies raised in M - mouse, G - goat, R - rabbit, or T - rat.", "key": {"[1]": {"details": "level 10 normalized to 0, mean of 3"}}, "note": "Values joined by “and” are separate entries in the source; they are usually repeats but may differ in a detail not shown here. Equal values may be shown once.", "data": [{"smiles": "CN(C)c1cccc(Nc2cc(-c3ccccc3)nc(C3CCNCC3)n2)c1", "note": "[ARN22089, N1,N1-dimethyl-N3-(6-phenyl-2-(piperidin-4-yl)pyrimidin-4-yl)benzene-1,3-diamine]", "values": [{"measurement": "INPP4b.R.C Norm_5", "setting": "level 5 vs 0, replicates", "value": "0.976 and 1.019"}, {"measurement": "IR.b.R.C Norm_5", "setting": "level 5 vs 0, replicates", "value": "1.056 and 1.010"}, {"measurement": "IRF.1.R.V Norm_5", "setting": "level 5 vs 0, replicates", "value": "0.974 and 0.981 and 1.030"}, {"measurement": "IRF.3.R.V Norm_5", "setting": "level 5 vs 0, replicates", "value": "0.924 and 0.890 and 0.996"}, {"measurement": "IRS1.R.V Norm_5", "setting": "level 5 vs 0, replicates", "value": "1.029 and 1.046 and 0.995"}, {"measurement": "IRS2.R.C Norm_5", "setting": "level 5 vs 0, replicates", "value": "1.195 and 0.736 and 1.046"}, {"measurement": "JAB1.M.C Norm_5", "setting": "level 5 vs 0, replicates", "value": "0.954 and 0.981 and 0.972"}, {"measurement": "JNK2.R.V Norm_5", "setting": "level 5 vs 0, replicates", "value": "0.643 and 1.507"}, {"measurement": "JNK_pT183_Y185.R.C Norm_5", "setting": "level 5 vs 0, replicates", "value": "1.060 and 0.929 and 0.988"}, {"measurement": "Jagged1.R.V Norm_5", "setting": "level 5 vs 0, replicates", "value": "1.010 and 1.054 and 0.889"}, {"measurement": "Jak2.R.V Norm_5", "setting": "level 5 vs 0, replicates", "value": "0.979 and 0.991"}, {"measurement": "KAP1.R.V Norm_5", "setting": "level 5 vs 0, replicates", "value": "1.116 and 1.063 and 1.099"}, {"measurement": "KEAP1.R.V Norm_5", "setting": "level 5 vs 0, replicates", "value": "1.026 and 0.913 and 0.925"}, {"measurement": "LAD1.R.V Norm_5", "setting": "level 5 vs 0, replicates", "value": "0.952 and 0.910 and 1.029"}, {"measurement": "LC3A.B.R.C Norm_5", "setting": "level 5 vs 0, replicates", "value": "1.119 and 0.843"}, {"measurement": "LCN2.R.V Norm_5", "setting": "level 5 vs 0, replicates", "value": "1.996 and 0.913 and 0.985"}, {"measurement": "LDHA.R.C Norm_5", "setting": "level 5 vs 0, replicates", "value": "1.253 and 1.735 and 0.318"}, {"measurement": "LRP6_pS1490.R.V Norm_5", "setting": "level 5 vs 0, replicates", "value": "1.015 and 1.011 and 1.114"}, {"measurement": "Lasu1.R.V Norm_5", "setting": "level 5 vs 0, replicates", "value": "0.982 and 1.009 and 0.926"}, {"measurement": "Lck.R.V Norm_5", "setting": "level 5 vs 0, replicates", "value": "1.005 and 1.060 and 0.966"}, {"measurement": "Lyn.R.V Norm_5", "setting": "level 5 vs 0, replicates", "value": "0.801 and 0.941 and 0.791"}, {"measurement": "MACC1.R.V Norm_5", "setting": "level 5 vs 0, replicates", "value": "0.899 and 0.883 and 1.061"}, {"measurement": "MAPK_pT202_Y204.R.C Norm_5", "setting": "level 5 vs 0, replicates", "value": "1.017 and 0.736 and 0.856"}, {"measurement": "MCT4.R.V Norm_5", "setting": "level 5 vs 0, replicates", "value": "1.005 and 0.979 and 1.159"}, {"measurement": "MDM2_pS166.R.V Norm_5", "setting": "level 5 vs 0, replicates", "value": "1.021 and 1.261 and 0.787"}, {"measurement": "MEK1.R.V Norm_5", "setting": "level 5 vs 0, replicates", "value": "1.082 and 0.785 and 1.201"}, {"measurement": "MEK1_pS217_S221.R.V Norm_5", "setting": "level 5 vs 0, replicates", "value": 0.926}, {"measurement": "MEK2.R.V Norm_5", "setting": "level 5 vs 0, replicates", "value": "1.048 and 1.127 and 0.942"}, {"measurement": "MERIT40.R.C Norm_5", "setting": "level 5 vs 0, replicates", "value": "0.988 and 1.019 and 0.961"}, {"measurement": "MERIT40_pS29.R.V Norm_5", "setting": "level 5 vs 0, replicates", "value": "1.133 and 1.001"}, {"measurement": "METTL3.R.V Norm_5", "setting": "level 5 vs 0, replicates", "value": "0.968 and 1.099 and 0.891"}, {"measurement": "MIF.R.C Norm_5", "setting": "level 5 vs 0, replicates", "value": "0.931 and 0.965 and 0.948"}, {"measurement": "MIG6.R.V Norm_5", "setting": "level 5 vs 0, replicates", "value": "0.932 and 0.886 and 1.000"}, {"measurement": "MITF.R.V Norm_5", "setting": "level 5 vs 0, replicates", "value": "0.975 and 1.014"}, {"measurement": "MLH1.M.V Norm_5", "setting": "level 5 vs 0, replicates", "value": "0.900 and 0.937 and 0.942"}, {"measurement": "MLKL.R.V Norm_5", "setting": "level 5 vs 0, replicates", "value": "0.966 and 0.982 and 0.886"}, {"measurement": "MMP2.R.V Norm_5", "setting": "level 5 vs 0, replicates", "value": "0.925 and 0.948 and 0.967"}, {"measurement": "MMP14.R.V Norm_5", "setting": "level 5 vs 0, replicates", "value": "1.097 and 1.257"}, {"measurement": "MR1.M.C Norm_5", "setting": "level 5 vs 0, replicates", "value": "0.897 and 0.992"}, {"measurement": "MRAP.R.C Norm_5", "setting": "level 5 vs 0, replicates", "value": "1.109 and 1.057 and 0.987"}, {"measurement": "MSH2.R.C Norm_5", "setting": "level 5 vs 0, replicates", "value": "0.939 and 1.022 and 0.901"}, {"measurement": "MSH6.R.C Norm_5", "setting": "level 5 vs 0, replicates", "value": "1.190 and 0.909"}, {"measurement": "MSI2.R.C Norm_5", "setting": "level 5 vs 0, replicates", "value": "1.108 and 1.110 and 1.024"}, {"measurement": "MTCO1.M.V Norm_5", "setting": "level 5 vs 0, replicates", "value": "0.944 and 0.964 and 1.334"}, {"measurement": "MTSS1.M.C Norm_5", "setting": "level 5 vs 0, replicates", "value": "0.924 and 0.926 and 1.000"}, {"measurement": "Mcl.1.R.V Norm_5", "setting": "level 5 vs 0, replicates", "value": "0.943 and 0.925 and 1.013"}, {"measurement": "MelanA.R.C Norm_5", "setting": "level 5 vs 0, replicates", "value": "0.973 and 1.097"}, {"measurement": "Melanoma.gp100.R.C Norm_5", "setting": "level 5 vs 0, replicates", "value": 1.016}, {"measurement": "Merlin.R.C Norm_5", "setting": "level 5 vs 0, replicates", "value": "1.257 and 0.725"}, {"measurement": "Midkine.R.V Norm_5", "setting": "level 5 vs 0, replicates", "value": "0.866 and 0.942 and 0.987"}, {"measurement": "Mitofusin.1.R.V Norm_5", "setting": "level 5 vs 0, replicates", "value": "1.058 and 0.973"}, {"measurement": "Mitofusin.2.R.V Norm_5", "setting": "level 5 vs 0, replicates", "value": 0.945}, {"measurement": "Mnk1.R.V Norm_5", "setting": "level 5 vs 0, replicates", "value": "1.014 and 0.983"}, {"measurement": "mTOR.R.V Norm_5", "setting": "level 5 vs 0, replicates", "value": "1.006 and 1.101 and 0.990"}, {"measurement": "mTOR_pS2448.R.C Norm_5", "setting": "level 5 vs 0, replicates", "value": "1.104 and 1.133 and 1.002"}, {"measurement": "TSC1.R.C Norm_10 Average", "setting": "[1]", "value": 0.899}, {"measurement": "TTF1.R.V Norm_10 Average", "setting": "[1]", "value": 1.078}, {"measurement": "TUFM.R.V Norm_10 Average", "setting": "[1]", "value": 1.221}, {"measurement": "Tuberin.R.V Norm_10 Average", "setting": "[1]", "value": 0.835}, {"measurement": "Tuberin_pT1462.R.V Norm_10 Average", "setting": "[1]", "value": 1.064}, {"measurement": "Twist.M.C Norm_10 Average", "setting": "[1]", "value": 1.019}, {"measurement": "Tyro3.R.V Norm_10 Average", "setting": "[1]", "value": 1.386}, {"measurement": "U.Histone.H2B.R.C Norm_10 Average", "setting": "[1]", "value": 0.890}, {"measurement": "UBAC1.R.V Norm_10 Average", "setting": "[1]", "value": 1.014}, {"measurement": "UBQLN4.M.C Norm_10 Average", "setting": "[1]", "value": 0.961}, {"measurement": "UGT1A.M.V Norm_10 Average", "setting": "[1]", "value": 1.050}, {"measurement": "UQCRC2.M.C Norm_10 Average", "setting": "[1]", "value": 1.112}, {"measurement": "UVRAG.R.C Norm_10 Average", "setting": "[1]", "value": 0.935}, {"measurement": "VASP.R.V Norm_10 Average", "setting": "[1]", "value": 0.873}, {"measurement": "VAV1.R.C Norm_10 Average", "setting": "[1]", "value": 0.923}, {"measurement": "VEGFR.2.R.V Norm_10 Average", "setting": "[1]", "value": 0.957}, {"measurement": "VEGFR.2_pY1175.R.C Norm_10 Average", "setting": "[1]", "value": 0.964}, {"measurement": "VHL.EPPK1.M.C Norm_10 Average", "setting": "[1]", "value": 1.030}, {"measurement": "VHL.R.C Norm_10 Average", "setting": "[1]", "value": 0.986}, {"measurement": "Vinculin.M.V Norm_10 Average", "setting": "[1]", "value": 0.988}, {"measurement": "WIPI1.R.C Norm_10 Average", "setting": "[1]", "value": 1.318}, {"measurement": "WIPI2.R.C Norm_10 Average", "setting": "[1]", "value": 0.944}, {"measurement": "WTAP.R.V Norm_10 Average", "setting": "[1]", "value": 1.224}, {"measurement": "Wee1.R.C Norm_10 Average", "setting": "[1]", "value": 0.915}, {"measurement": "Wee1_pS642.R.C Norm_10 Average", "setting": "[1]", "value": 0.900}, {"measurement": "XBP.1.G.C Norm_10 Average", "setting": "[1]", "value": 1.193}]}]}
